Data from patent publication US7534898B2, “Process for producing monatin or salt thereof” (Ajinomoto Co., Inc., priority 2004, dated 2009).

Assays:
[1] = cited from earlier work; for intensity as a sweetener (strength of sweetness): comparison among the four optical isomers of monatin, Patent Document 5
[2] = solubility in ethanol (crystallization with ethanol as poor solvent); type: physicochemical; conditions: compared with (2R,4R) monatin
From the text: It is also possible to efficiently separate the steric isomers by utilizing the difference in solubility of (2S,4R) monatin and (2R,4R) monatin or of (2R,4S) monatin and (2S,4S) monatin in ethanol. […] Therefore, before crystallization of (2R,4R) monatin (salt), (2S,4R) monatin is firstly crystallized and the resulting crystals are removed. […] In case crystals of (2S,4R) monatin are previously removed by means of crystallization, it is possible to efficiently remove (2S,4R) monatin from the reaction solution when the crystallizing temperature is set at as high as about 70 to 80° C. and the crystals prepared by the crystallization are preferably filtered when they are still at high temperature. In addition, the crystals of (2R,4R) monatin (salt) prepared may be recrystallized the same as above for making the purity higher. The above is also the same in the case of (2R,4S) monatin and (2S,4S) monatin.

| SMILES | intensity as a sweetener (strength of sweetness) [1] | solubility in ethanol [2] | sweet taste relative to sucrose ([1]; compared with sucrose, Patent Document 1) |
| --- | --- | --- | --- |
| N[C@H](C[C@@](O)(Cc1c[nH]c2ccccc12)C(=O)O)C(=O)O (stereo in doubt) [(2R,4R) monatin, 4-hydroxy-4-(3-indolylmethyl)-2-aminoglutaric acid] | far better in terms of intensity as a sweetener |  |  |
| N[C@@H](C[C@@](O)(Cc1c[nH]c2ccccc12)C(=O)O)C(=O)O (stereo in doubt) [(2R,4S) monatin, 4-hydroxy-4-(3-indolylmethyl)-2-aminoglutaric acid] | far better in terms of intensity as a sweetener |  |  |
| N[C@@H](C[C@@](O)(Cc1c[nH]c2ccccc12)C(=O)O)C(=O)O (stereo in doubt) [(2S,4R) monatin, 4-hydroxy-4-(3-indolylmethyl)-2-aminoglutaric acid] | lower strength of sweetness | low as compared with (2R,4R) monatin |  |
| N[C@@H](C[C@@](O)(Cc1c[nH]c2ccccc12)C(=O)O)C(=O)O (stereo in doubt) [(2S,4S) monatin, 4-hydroxy-4-(3-indolylmethyl)-2-aminoglutaric acid] | lower strength of sweetness |  | several hundred times as sweet as sucrose |
